Measurements as given in ChEMBL document CHEMBL3286313 (J Med Chem, 2014).
“And” between values parts separate entries of the source, which are not always exact repeats. Equal values may be shown once. The source made the active and inactive calls. No cut-off for these calls is given here.

Columns and labels:
[1] = biological target: 5-hydroxytryptamine receptor 2A (Homo sapiens, UniProt P28223); test: biochemical; format: cell-based, HEK293
D(3) dopamine receptor [2] = biological target: T1, D(3) dopamine receptor (Homo sapiens, UniProt P35462); format: functional, cell-based, HEK293
D(1A) dopamine receptor = D(1A) dopamine receptor (Homo sapiens, UniProt P21728); test: biochemical; format: cell-based, HEK293
D(2) dopamine receptor [3] = biological target: T2, D(2) dopamine receptor (Homo sapiens, UniProt P14416); test: biochemical; format: cell-based, CHO
D(2) dopamine receptor [4] = biological target: T2, D(2) dopamine receptor; test: biochemical; format: cell-based, CHO; remark: listed apart in the source
D(3) dopamine receptor [5] = biological target: T1, D(3) dopamine receptor; test: biochemical; format: cell-based, CHO
D(4) dopamine receptor = biological target: T3, D(4) dopamine receptor (Homo sapiens, UniProt P21917); test: biochemical; format: cell-based, CHO
T3 sequence (P21917 whole entry): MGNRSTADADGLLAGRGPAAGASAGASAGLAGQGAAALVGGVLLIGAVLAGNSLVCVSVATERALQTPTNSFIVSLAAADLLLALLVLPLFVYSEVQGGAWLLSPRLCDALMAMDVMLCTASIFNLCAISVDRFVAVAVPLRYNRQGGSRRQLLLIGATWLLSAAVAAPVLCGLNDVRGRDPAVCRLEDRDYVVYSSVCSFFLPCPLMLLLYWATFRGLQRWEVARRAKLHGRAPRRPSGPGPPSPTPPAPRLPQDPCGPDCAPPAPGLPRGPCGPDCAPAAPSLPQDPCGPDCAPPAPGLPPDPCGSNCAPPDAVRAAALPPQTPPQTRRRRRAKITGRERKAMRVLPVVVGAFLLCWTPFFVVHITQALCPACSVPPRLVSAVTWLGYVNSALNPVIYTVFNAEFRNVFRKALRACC

D(2) dopamine receptor [6] = biological target: T2, D(2) dopamine receptor
D(2) dopamine receptor [7] = biological target: T2, D(2) dopamine receptor; remark: listed apart in the source
Mus musculus = test: CNS activity in C57Bl/6J mouse assessed as auditory startle response at 3 mg/kg, ip measured after 15 mins; format: functional, organism-based; set-up: dose 3 mg/kg

Sequence of D(1A) dopamine receptor (P21728 whole entry): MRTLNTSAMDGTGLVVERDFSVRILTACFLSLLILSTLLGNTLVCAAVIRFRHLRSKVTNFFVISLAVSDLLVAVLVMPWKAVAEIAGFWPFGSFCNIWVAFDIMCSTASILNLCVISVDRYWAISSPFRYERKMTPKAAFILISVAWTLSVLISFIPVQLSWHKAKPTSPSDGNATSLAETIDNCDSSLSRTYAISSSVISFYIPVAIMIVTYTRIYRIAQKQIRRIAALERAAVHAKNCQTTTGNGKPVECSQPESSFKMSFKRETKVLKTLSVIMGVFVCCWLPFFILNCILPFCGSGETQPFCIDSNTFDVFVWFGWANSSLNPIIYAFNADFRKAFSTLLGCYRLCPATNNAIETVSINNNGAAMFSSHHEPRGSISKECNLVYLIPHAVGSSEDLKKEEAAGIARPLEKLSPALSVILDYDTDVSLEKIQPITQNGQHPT
T2 sequence (P14416 whole entry): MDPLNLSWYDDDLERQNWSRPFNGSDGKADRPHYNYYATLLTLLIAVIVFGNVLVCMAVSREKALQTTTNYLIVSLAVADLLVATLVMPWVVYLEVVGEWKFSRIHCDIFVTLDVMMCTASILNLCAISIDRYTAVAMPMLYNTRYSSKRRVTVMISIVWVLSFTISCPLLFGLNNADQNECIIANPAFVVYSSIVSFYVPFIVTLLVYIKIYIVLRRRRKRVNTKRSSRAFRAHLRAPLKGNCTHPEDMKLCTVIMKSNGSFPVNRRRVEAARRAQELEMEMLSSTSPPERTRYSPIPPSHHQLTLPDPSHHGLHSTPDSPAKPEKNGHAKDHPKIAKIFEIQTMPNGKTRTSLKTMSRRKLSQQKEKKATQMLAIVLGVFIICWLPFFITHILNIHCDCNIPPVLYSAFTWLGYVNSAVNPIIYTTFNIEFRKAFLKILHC
T1 sequence (P35462 whole entry): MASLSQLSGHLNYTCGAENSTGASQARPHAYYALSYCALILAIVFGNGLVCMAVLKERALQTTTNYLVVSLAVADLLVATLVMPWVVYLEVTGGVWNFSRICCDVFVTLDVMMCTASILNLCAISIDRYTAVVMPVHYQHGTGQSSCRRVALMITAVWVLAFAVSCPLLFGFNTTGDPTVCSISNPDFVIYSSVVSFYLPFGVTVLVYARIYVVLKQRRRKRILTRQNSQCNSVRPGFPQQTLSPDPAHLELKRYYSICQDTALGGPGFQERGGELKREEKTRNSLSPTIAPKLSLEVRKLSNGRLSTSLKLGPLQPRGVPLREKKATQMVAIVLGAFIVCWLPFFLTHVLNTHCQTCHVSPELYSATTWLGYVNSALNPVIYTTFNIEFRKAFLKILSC
Sequence of 5-hydroxytryptamine receptor 2A (P28223 whole entry): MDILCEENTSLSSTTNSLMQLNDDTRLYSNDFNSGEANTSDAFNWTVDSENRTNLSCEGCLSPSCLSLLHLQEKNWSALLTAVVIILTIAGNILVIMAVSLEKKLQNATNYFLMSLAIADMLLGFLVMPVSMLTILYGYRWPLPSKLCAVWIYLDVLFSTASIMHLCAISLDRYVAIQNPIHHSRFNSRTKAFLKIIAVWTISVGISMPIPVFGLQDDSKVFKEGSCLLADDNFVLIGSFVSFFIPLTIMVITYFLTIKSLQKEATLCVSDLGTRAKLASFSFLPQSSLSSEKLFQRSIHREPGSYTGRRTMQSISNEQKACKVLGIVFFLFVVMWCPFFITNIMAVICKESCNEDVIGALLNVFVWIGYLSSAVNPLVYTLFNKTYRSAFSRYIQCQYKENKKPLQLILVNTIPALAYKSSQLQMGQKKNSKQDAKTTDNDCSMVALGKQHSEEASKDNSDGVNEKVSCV

Row | Ki [1] [µM] | EC50 (D(3) dopamine receptor [2]) [µM] | Ki (D(1A) dopamine receptor) [µM] | Ki (D(2) dopamine receptor [3]) [µM] | Ki (D(2) dopamine receptor [4]) [µM] | Ki (D(3) dopamine receptor [5]) [µM] | Ki (D(4) dopamine receptor) [µM] | EC50 (D(2) dopamine receptor [6]) [µM] | IC50 (D(2) dopamine receptor [7]) | Compound | Activity (Mus musculus)
1 | 0.004 | 0.039 | 0.67 | 0.00017 | 0.00025 | 0.00069 | 0.006 | 0.24 | 0.0038 µM | O/N=C/c1cnn2ccc(OCCCCN3CCN(c4cccc(Cl)c4Cl)CC3)cc12 (stereo in doubt; 8b) | –
2 | – | – | – | 0.051 | 0.015 | 0.0064 | 0.078 | – | – | O=Cc1cnn2c(OCCCCN3CCN(c4cccc(Cl)c4Cl)CC3)cccc12 | –
3 | – | 0.066 | – | 0.034 | 0.039 | 0.007 | 0.13 | 0.18 | – | Clc1cccc(N2CCN(CCCCOc3ccn4nccc4c3)CC2)c1Cl | –
4 | 0.0079 | 0.015 | 0.26 | 0.0033 | 0.0023 | 0.00086 | 0.024 | – | – | O/N=C/c1cc2cc(OCCCCN3CCN(c4cccc(Cl)c4Cl)CC3)ccn2n1 | –
5 | 0.016 | 0.0059 | 0.24 | 0.0031 | 0.0023 | 0.0013 | 0.035 | 0.54 | – | OCc1cc2cc(OCCCCN3CCN(c4cccc(Cl)c4Cl)CC3)ccn2n1 | –
6 | – | 0.11 | – | 0.0062 | 0.0081 | 0.002 | 0.018 | 0.34 | – | O=Cc1cnn2cc(OCCCCN3CCN(c4cccc(Cl)c4Cl)CC3)ccc12 | –
7 | – | – | – | 0.029 | 0.024 | 0.02 | 0.041 | – | – | O=Cc1cnn2cccc(OCCCCN3CCN(c4cccc(Cl)c4Cl)CC3)c12 | –
8 | 0.24 | 0.0019 | 0.97 | 0.0046 | 0.0032 | 0.0069 | 0.057 | 0.65 | 0.36 µM | O=Cc1cnn2ccc(OCCCCN3CCN(c4cccc(Cl)c4Cl)CC3)cc12 | Active
9 | – | 0.041 | – | 0.0042 | 0.0021 | 0.0023 | 0.0044 | 1.3 | – | Clc1cccc(N2CCN(CCCCOc3ccc4ccnn4c3)CC2)c1Cl | –
10 | 0.0077 | 0.042 | 4.3 | 0.0018 | 0.0017 | 0.0023 | 0.0053 | 0.27 | – | O/N=C/c1cnn2ccc(OCCCCN3CCN(c4cccc(Cl)c4Cl)CC3)cc12 (stereo in doubt; 8a) | –
11 | – | – | – | 0.01 | 0.014 | 0.0059 | 0.029 | – | – | O=Cc1c(OCCCCN2CCN(c3cccc(Cl)c3Cl)CC2)nn2ccccc12 | –
12 | – | – | – | 0.064 | 0.016 | 0.0072 | 0.016 | – | – | Clc1cccc(N2CCN(CCCCOc3cccc4ccnn34)CC2)c1Cl | –
13 | 0.49 | 0.012 | 0.93 | 0.00058 | 0.00032 | 0.0015 | 0.0057 | 0.11 | – | N#Cc1cnn2ccc(OCCCCN3CCN(c4cccc(Cl)c4Cl)CC3)cc12 | –
14 | 0.081 | 0.041 | 3.5 | 0.0089 | 0.0067 | 0.0019 | 0.0093 | 0.098 | – | N#Cc1cc2cc(OCCCCN3CCN(c4cccc(Cl)c4Cl)CC3)ccn2n1 | –
15 | 0.022 | 0.057 | 0.15 | 0.0074 | 0.0067 | 0.0021 | 0.047 | 0.44 | – | CCOC(=O)c1cc2cc(OCCCCN3CCN(c4cccc(Cl)c4Cl)CC3)ccn2n1 | –
16 | – | – | – | 0.025 | 0.03 | 0.01 | 0.016 | – | – | Clc1cccc(N2CCN(CCCCOc3cccn4nccc34)CC2)c1Cl | –

Row | Compound | Ki [1] [µM] | EC50 (D(3) dopamine receptor [2]) [µM] | Ki (D(1A) dopamine receptor) [µM] | Ki (D(2) dopamine receptor [3]) [µM] | Ki (D(2) dopamine receptor [4]) [µM] | Ki (D(3) dopamine receptor [5]) [µM] | Ki (D(4) dopamine receptor) [µM] | EC50 (D(2) dopamine receptor [6]) [µM] | IC50 (D(2) dopamine receptor [7]) | Activity (Mus musculus)
17 | O=Cc1cc2cc(OCCCCN3CCN(c4cccc(Cl)c4Cl)CC3)ccn2n1 | 0.056 | 0.005 | 0.18 | 0.014 | 0.014 | 0.006 | 0.089 | – | 0.0288 µM and 0.022 µM | –
